Data on ten molecules can be found in US6713477B1, “Hydroxamic acid derivatives” (Sumitomo Pharmaceuticals Company, Limited, priority 2000, dated 2004).

The target in experiment [1] is T1, MMP-9 (Homo sapiens, UniProt P14780).
T1 construct: Both enzymes were commercially available as active forms (Yagai-Cosmobio); purchased Yagai-Cosmobio
The experiment in a line: Inhibition assay against MMP-9 (fluorescent MCA-labeled substrate). As to conditions: active MMP at 20 nM, 37° C., 1.5 hours. The experiment is classed as biochemical. Here is the method:
(§1) Both enzymes were commercially available as active forms (Yagai-Cosmobio) and were used for inhibition assays.
(§2) Enzymatic assays were performed in accordance with C. G. Knight's method (FEBS Lett., 296(3), 263-266 (1992)). The fluorescent MCA-labeled substrate, (7-methoxycumaline-4-yl)-Pro-Leu-Gly-Leu-L-[N-(2,4-dinitrophenyl)-L-2,3-diaminopropionyl]-Ala-Arg-NH2 (Peptide Institute. Inc.) was used for measuring the kinetics of inhibition for each tested compound.
(§3) The substrate was incubated at 37° C. for 1.5 hours (MMP-1; for 24 hours) with active MMP (at 20 nM, except MMP-13 at 5 nM) and a test compound in assay buffer containing 100 mM Tris-HCl (pH7.5), 10 mM CaCl2, 100 MM NaCl and 0.05% Brij-35.

Experiment [2] relates to TNF-α release from RAW 267.4. The experiment can be described thus: Inhibition ELISA for Tumor Necrosis Factor-α (TNF-α) release, LPS-stimulated RAW 267.4 cells. The experiment is classed as cell-based. As to conditions: Mus musculus, RAW267.4, LPS-stimulated RAW 267.4, 24 hours, read-out: Inhibition of TNF production at 5 μM. Here is the method: RAW 267.4 (derived from mouse monocytes) was seeded in RPMI1640 containing 10% of FBS (GIBCO BRL) at 100 μL/well (5×10^5 cells/mL) onto 96-well microplates and cultured at 37° C., 5% CO2. After culturing for 4 hours, each test compound diluted in RPMI1640 was added at 50 μL/well. 15 minutes later, […] LPS (DIFCO) diluted in RPMI1640 was added at 50 μL/well and cultured for 24 hours.
TNF-α produced was measured by ELISA as usual. (For example; J. Cellular Physiol. 154, 479 (1993)) Absorbance at 450 nm (normalized at 620 nm) was measured and percentage of the amount of TNF-α release for each tested compound (n=2) was determined (0% for untreated control (n=4), and 100% for LPS stimulation (n=4)).
A general note: In an ELISA, binding on a coated surface is turned into a signal by an enzyme label.

The target in experiment [3] is T2, MMP-2 (Homo sapiens, UniProt P08253).
T2 construct: Both enzymes were commercially available as active forms (Yagai-Cosmobio); purchased Yagai-Cosmobio
T2 sequence (P08253 110-660): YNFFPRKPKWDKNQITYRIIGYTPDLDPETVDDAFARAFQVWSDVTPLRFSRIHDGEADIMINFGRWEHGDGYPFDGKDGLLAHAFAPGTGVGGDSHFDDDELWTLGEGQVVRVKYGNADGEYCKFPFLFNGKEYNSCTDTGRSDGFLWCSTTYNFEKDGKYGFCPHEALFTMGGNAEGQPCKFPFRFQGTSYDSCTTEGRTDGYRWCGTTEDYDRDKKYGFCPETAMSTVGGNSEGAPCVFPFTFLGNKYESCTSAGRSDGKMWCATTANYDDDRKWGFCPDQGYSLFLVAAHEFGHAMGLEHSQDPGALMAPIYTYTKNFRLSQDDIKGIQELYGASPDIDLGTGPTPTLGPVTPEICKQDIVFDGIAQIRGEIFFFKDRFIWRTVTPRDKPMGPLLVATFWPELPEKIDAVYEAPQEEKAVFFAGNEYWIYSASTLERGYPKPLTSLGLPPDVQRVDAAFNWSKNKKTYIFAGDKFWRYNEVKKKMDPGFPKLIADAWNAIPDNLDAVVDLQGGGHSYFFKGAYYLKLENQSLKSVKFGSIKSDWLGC
The experiment can be described thus: Inhibition assay against MMP-2 (fluorescent MCA-labeled substrate). The experiment is classed as biochemical. The settings on record: active MMP at 20 nM, 37° C., 1.5 hours. Here is the method:
as §1, §2, §3

Experiment [4] has as its target T3, MMP-3 (Matrix Metalloproteinase-3, Stromelysin-1) (Homo sapiens, UniProt P08254).
T3 construct: C-terminal truncated form of human prostromelysin cDNA; made in house; host or cells: E. coli
The experiment in a line: Inhibition assay against MMP-3 (fluorescent MCA-labeled substrate). The settings on record: Table 10; active MMP at 20 nM, 37° C., 1.5 hours; read-out: IC50 MMP3. The experiment is classed as biochemical. Here is the method: C-terminal truncated form of human prostromelysin cDNA (proMMP-3, cDNA sequence in Nature, 348, 699-704 (1990)) was subcloned, expressed in E.coli and purified as described previously (Biochemistry 30, 6476-6483 (1991)). Activation of proMMP-3 was achieved by treatment with 1 mM 4-aminophenylmercuric acetate at 37° C. for 60 min.
as §2, §3

Experiment [5] concerns the target T4, MMP-13 (Matrix Metalloproteinase-13, Collagenase-3) (Homo sapiens, UniProt P45452).
T4 construct: made in house; host or cells: E. coli BL21 (DE3), pET11a
The experiment in a line: Inhibition assay against MMP-13 (fluorescent MCA-labeled substrate). The experiment is classed as biochemical. The settings on record: Table 10; active MMP-13 at 5 nM, 37° C., 1.5 hours; read-out: IC50 MMP13.
Description: To subclone C-terminal truncated form of procollagenase-3 (proMMP-13) cDNA (J.Biol.Chem., 269(24), 16766-16773 (1994)), two synthetic oligonucleotide primer (5′-[…]-3′ and 5′-[…]-3′: the former incorporates sequences for a unique NdeI site (underlined) including initial methionine, and the latter has sequences for a stop codon and BamHI site (underlined)) were used with human chondrocyte cDNA library (CLONTECH) in PCR. With these primers and Pfu DNA polymerase (STRATAGENE) in PCR, 767 bp fragment was generated, which encodes 84 amino acid prosequence and 164 amino acids of mature MMP-13. The fragment was digested with NdaI and BamHI, ligated into the NdeI and BamHI sites of pET11a (STRATAGENE), transformed in E.coli BL21 (DE3) and cultured. The crude cell extract was prepared as described in Biochemistry. The extract was dialyzed against 20 mM Tris-HCl(pH7.2)/5 mM CaCl2/0.02% NaN3 and applied to a SP-Sepharose HP column (1.6×10 cm, Amersham-Pharmacia Biotech), and elution was performed with 50 mL linear gradient of 0 to 0.3 M NaCl (partially purified proMMP-13 was eluted at 0.2 M approximately). The fraction was dialyzed against 20 mM Tris-HCl(pH7.9)/5 mM CaCl2,/200 mM (NH4)2SO4/0.02% NaN3 and applied to a Phenyl Sepharose HP column (1.6×5 cm, Amersham-Pharmacia Biotech), and elution was performed with 20 mL linear gradient of 0.2 to 0 M (NH4)2SO4 (pure proHMP-13 was eluted at 50 mM approximately). The fraction was concentrated by YM-5 ultrafiltration membrane and activated with 4-aminophenylmercuric acetate and active MMP-13 was separated from propeptide fragments by gel filtration chromatography as described in Biochemistry.
as §2, §3

T3 sequence (P08254 100-272 limits assumed): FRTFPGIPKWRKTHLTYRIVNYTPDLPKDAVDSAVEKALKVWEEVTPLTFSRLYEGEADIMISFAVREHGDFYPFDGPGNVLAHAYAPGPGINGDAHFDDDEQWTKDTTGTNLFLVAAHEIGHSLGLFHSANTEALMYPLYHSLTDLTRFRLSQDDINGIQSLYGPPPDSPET
T1 sequence (P14780 107-707 limits assumed, species assumed): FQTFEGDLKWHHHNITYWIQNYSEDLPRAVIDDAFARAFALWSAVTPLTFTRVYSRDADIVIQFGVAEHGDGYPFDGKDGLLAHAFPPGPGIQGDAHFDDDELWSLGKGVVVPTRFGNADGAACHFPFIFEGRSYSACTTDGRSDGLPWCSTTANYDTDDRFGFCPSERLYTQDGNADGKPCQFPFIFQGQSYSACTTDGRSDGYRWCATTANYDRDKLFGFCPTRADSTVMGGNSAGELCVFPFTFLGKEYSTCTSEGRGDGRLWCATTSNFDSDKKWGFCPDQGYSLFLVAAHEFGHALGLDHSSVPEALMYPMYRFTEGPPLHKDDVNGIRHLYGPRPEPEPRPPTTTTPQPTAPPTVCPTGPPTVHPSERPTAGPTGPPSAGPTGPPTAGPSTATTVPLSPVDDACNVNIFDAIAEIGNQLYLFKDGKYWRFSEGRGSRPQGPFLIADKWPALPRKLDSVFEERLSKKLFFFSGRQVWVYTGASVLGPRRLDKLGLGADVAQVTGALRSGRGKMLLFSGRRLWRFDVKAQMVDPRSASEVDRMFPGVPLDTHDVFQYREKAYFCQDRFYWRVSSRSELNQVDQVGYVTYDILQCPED

Take `COc1ccc(C2SCC(=O)N2[C@@H](CC(C)C)C(=O)NO)cc1` (stereo partly drawn) [Example 21, 3-[(1S)-(N-Hydroxyaminocarbonyl)-3-methylbutyl]-2-(4-methoxyphenyl)-1,3-thiazolidine-4-one]: the IC50 (usually the concentration that inhibits the measured activity by half) in experiment [1] is greater than 1000 nM.

With `COc1ccc(/C=C2\Sc3ccccc3N(CC(=O)NO)C2=O)cc1` [Example 365, 2H-2(Z)-(4-Methoxybenzylidene)-1,4-benzothiazin-3(4H)-one-4-yl-acetic Acid N-Hydroxylamide], the IC50 stood at 110 nM in experiment [1] and 320 nM in experiment [3]. Further, the inhibition – broadly, the share of the control response that was lost under treatment – at 5 µM in experiment [2] stood at 20%.

With `O=C(CN1C(=O)/C(=C/c2ccc(Oc3ccccc3)cc2)Sc2ccccc21)NO` [Example 368], the IC50 in experiment [1] is less than 10 nM; in experiment [3] it was 300 nM; in experiment [4], 1500 nM; in experiment [5], 36 nM. The inhibition at 5 µM in experiment [2] stood at 30%.

With `CCCCOc1ccc(C=C2Sc3ccccc3N(CC(=O)NO)C2=O)cc1` [Example 369], the IC50 was 200 nM in experiment [1] and greater than 1000 nM in experiment [3].

Regarding `COc1ccc(CC2Sc3ccccc3N([C@H](C)C(=O)NO)C2=O)cc1` (some centres unmarked) [Example 438], the IC50 in experiment [4] was 1660 nM; in experiment [5], 375 nM.

For `COc1ccc(NC(=O)CC2Sc3ccccc3N(CC(=O)NO)C2=O)cc1` (centres unmarked) [Example 441, 2H-2-[N′-(4-Methoxyphenyl)-carbamoylmethyl]-1,4-benzothiazin-3(4H)-one-4-yl-acetic Acid N-Hydroxylamide], the IC50 was 2960 nM in experiment [4] and 118 nM in experiment [5].

In the case of `COc1ccc(C2SC(CC(=O)NC(C)C)C(=O)N2C(Cc2ccccc2)C(=O)NO)cc1` (centres unmarked) [Example 479], the IC50 in experiment [4] was 270 nM; in experiment [5], 19 nM.

As to `CC(C)CC(C(=O)NO)N1C(=O)C(CC(=O)NCc2ccco2)[S+]([O-])C1c1ccc(Oc2ccc(Cl)cc2)cc1` (centres unmarked) [Example 739], the concentration for half-maximal inhibition (IC50) in experiment [4] was 301 nM; in experiment [5], 17 nM.

Take `COCCNC(=O)CC1C(=O)N(C(CC(C)C)C(=O)NO)C(c2ccc(Oc3ccc(Cl)cc3)cc2)[S+]1[O-]` (centres unmarked) [Example 740]: the IC50 in experiment [4] is 459 nM; in experiment [5], 12 nM.

Turning to `COc1ccc(CC2Sc3cc(C(=O)N[C@H](CO)CC(C)C)ccc3N(CC(=O)NO)C2=O)cc1` (some centres unmarked) [Example 865], the results for the half-inhibitory concentration (IC50) in experiment [4] and in experiment [5] were 53 nM and 4.9 nM, respectively.
